This is an account of results in patent publication US20070219212A1, “Pyranouidole Derivatives and the Use Thereof for the Treatment of Hepatitis C Virus Infection or Disease” (priority 2004, published 2007).

Like-named read-outs stand apart in the source and are kept apart here.

Broadly, the IC50 is the point on the concentration scale where inhibition reaches its midpoint.

In test [1] the target is BB7 RNA-dependent RNA polymerase hepatitis C virus protein (Con1 HCV sequence) (Hepatitis C virus genotype 1b, UniProt Q9WMX2). As to the kind of experiment: Hepatitis C polymerase (BB7) inhibition. Type of test: biochemical. The method, boiled down:
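Con1 (BB7) replicon-derived NS5B polymerase preincubated with compound (15% DMSO) 15 min at room temperature, then RNA template (~3 nM pOF) and nucleotides added. Reaction run 2 h at 22-25° C., stopped with EDTA (85 mM final). ^33P-labelled product captured on filters, washed with 0.5 M sodium phosphate pH 7.0, scintillation counted.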

Test [2] concerns the target T1, NS5B from the BK strain (genotype 1b) (Hepatitis C virus genotype 1b, UniProt P26663).
T1 construct: NS5B from the BK strain (genotype 1b) is expressed in E coli as a protein in which the 21 C-terminal amino acids are replaced; made in house; host or cells: E. coli
As to the kind of experiment: Hepatitis C polymerase (NS5B, BK strain) inhibition, radioactive filter assay. Type of test: biochemical. Particulars: NS5B BK strain (genotype 1b). The method, boiled down:
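E. coli-expressed C-terminally truncated His-tagged NS5B preincubated 15 min with compound at room temperature, then run 2 h at 22-25 °C on a hairpin-primed heteropolymeric RNA template (~3 nM) with radioactive nucleotides. EDTA stop; ~760 nt 33P product captured on filters, washed with phosphate buffer pH 7.0, scintillation counted.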

Setting [3] is: BB7 (Con1) NS5B, read-out: BB7 IC50.

T1 sequence (P26663 2420-2989): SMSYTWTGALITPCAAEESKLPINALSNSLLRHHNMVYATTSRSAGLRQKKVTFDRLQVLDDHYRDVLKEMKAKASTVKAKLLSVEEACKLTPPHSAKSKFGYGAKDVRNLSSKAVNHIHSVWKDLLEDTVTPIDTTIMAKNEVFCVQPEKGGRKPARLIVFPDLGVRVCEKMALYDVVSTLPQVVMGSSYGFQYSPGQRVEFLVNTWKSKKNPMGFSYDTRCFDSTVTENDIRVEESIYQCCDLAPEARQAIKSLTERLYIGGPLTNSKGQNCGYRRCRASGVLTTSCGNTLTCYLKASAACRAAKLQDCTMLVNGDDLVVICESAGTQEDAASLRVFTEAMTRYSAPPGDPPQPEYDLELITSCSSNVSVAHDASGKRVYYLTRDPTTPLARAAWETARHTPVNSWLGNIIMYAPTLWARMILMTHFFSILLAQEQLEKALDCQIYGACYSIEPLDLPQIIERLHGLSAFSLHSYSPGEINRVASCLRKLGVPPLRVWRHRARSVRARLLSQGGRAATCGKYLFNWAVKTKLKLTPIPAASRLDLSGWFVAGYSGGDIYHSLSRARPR
BB7 RNA-dependent RNA polymerase hepatitis C virus protein (Con1 HCV sequence), sequence (Q9WMX2 2420-3010): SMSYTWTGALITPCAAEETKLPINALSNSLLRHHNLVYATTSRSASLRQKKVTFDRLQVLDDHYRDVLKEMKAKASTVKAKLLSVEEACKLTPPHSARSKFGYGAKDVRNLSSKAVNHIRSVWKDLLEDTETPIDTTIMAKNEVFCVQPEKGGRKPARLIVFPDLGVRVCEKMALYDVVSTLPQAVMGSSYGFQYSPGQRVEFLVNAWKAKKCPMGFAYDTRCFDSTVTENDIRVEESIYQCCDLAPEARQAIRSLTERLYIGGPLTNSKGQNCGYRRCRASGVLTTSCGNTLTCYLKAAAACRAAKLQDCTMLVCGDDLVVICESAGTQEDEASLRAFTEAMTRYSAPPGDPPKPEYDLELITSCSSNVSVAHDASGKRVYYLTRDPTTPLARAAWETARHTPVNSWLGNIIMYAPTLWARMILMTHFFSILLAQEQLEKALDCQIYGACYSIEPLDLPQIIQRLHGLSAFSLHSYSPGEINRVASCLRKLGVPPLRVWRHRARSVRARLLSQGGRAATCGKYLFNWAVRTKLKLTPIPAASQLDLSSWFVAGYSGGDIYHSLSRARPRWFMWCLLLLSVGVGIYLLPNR

For `CCCC1(CC(=O)O)OCCc2c1[nH]c1c(C)c(OCc3ccon3)cc(C#N)c21` (stereo not drawn) [Example 124], the IC50 in test [1] and in test [2] was < 500 nM each time.

On to `CCC[C@]1(CC(=O)O)OCCc2c1[nH]c1c(C)c(OCc3conc3C)cc(C#N)c21` [Example 125], for which the IC50 in test [1] and in test [2] was < 500 nM throughout.

In the case of `CCCC1(CC(=O)O)OCCc2c1[nH]c1c(C)c(OCc3cc(C(F)(F)F)n(C)n3)cc(C#N)c21` (stereo not drawn) [Example 126], the IC50 in test [1] and in test [2] was < 500 nM each time.

As for `CCCC1(CC(=O)O)OCCc2c1[nH]c1c(C)c(OCc3cc(C4CC4)on3)cc(C#N)c21` (stereo not drawn) [Example 127], the IC50 in test [1] (setting [3]) and in test [2] was < 500 nM throughout.

Consider `CCCC1(CC(=O)O)OCCc2c1[nH]c1c(C)c(OCc3cc(C)[nH]n3)cc(C#N)c21` (stereo not drawn) [Example 128], for which the half-inhibitory concentration (IC50) in test [1] and in test [2] was < 500 nM each time.

Take `CCCC1(CC(=O)O)OCCc2c1[nH]c1c(C)c(OCc3cc(C(F)(F)F)n[nH]3)cc(C#N)c21` (stereo not drawn) [Example 129]: the IC50 in test [1] (setting [3]) and in test [2] was < 500 nM in each case.

For the compound `CCCC1(CC(=O)O)OCCc2c1[nH]c1c(C)c(OCc3cc(C4CC4)n(C)n3)cc(C#N)c21` (stereo not drawn) [Example 130], the IC50 in test [1] and in test [2] was < 500 nM throughout.

As for `CCCC1(CC(=O)O)OCCc2c1[nH]c1c(C)c(OCc3nsc(N(CC)CC)n3)cc(C#N)c21` (stereo not drawn) [Example 132], the IC50 in test [1] and in test [2] was < 500 nM in each case.

Turning to `CCCC1(CC(=O)O)OCCc2c1[nH]c1c(C)c(OCc3nnc(C)s3)cc(C#N)c21` (stereo not drawn) [Example 133], the IC50 in test [1] and in test [2] was < 500 nM each time.

As to `CCCC1(CC(=O)O)OCCc2c1[nH]c1c(C)c(OCc3nsc(OCC)n3)cc(C#N)c21` (stereo not drawn) [Example 134], the IC50 in test [1] (setting [3]) and in test [2] was < 500 nM each time.

Turning to `CCCC1(CC(=O)O)OCCc2c1[nH]c1c(C)c(OCCCc3cc(C)on3)cc(C#N)c21` (stereo not drawn) [Example 135], the IC50 in test [1] and in test [2] was < 500 nM in each case.

Consider `CCCC1(CC(=O)O)OCCc2c1[nH]c1c(C)c(OCc3nsc(N(C)C)n3)cc(C#N)c21` (stereo not drawn) [Example 136], for which the IC50 in test [1] (setting [3]) and in test [2] was < 500 nM throughout.

Regarding `CCCC1(CC(=O)O)OCCc2c1[nH]c1c(C)c(OCc3ccn(CC)n3)cc(C#N)c21` (stereo not drawn) [Example 137], the IC50 in test [1] and in test [2] was < 500 nM throughout.

Regarding `CCCC1(CC(=O)O)OCCc2c1[nH]c1c(C)c(OCc3cc(CC)n(CC)n3)cc(C#N)c21` (stereo not drawn) [Example 138], the IC50 in test [1] (setting [3]) and in test [2] was < 500 nM in each case.

For `CCCC1(CC(=O)O)OCCc2c1[nH]c1c(C)c(OCc3cc(CC)n(C)n3)cc(C#N)c21` (stereo not drawn) [Example 139], the IC50 in test [1] and in test [2] was < 500 nM throughout.

As for `CCCC1(CC(=O)O)OCCc2c1[nH]c1c(C)c(OCc3cc(C)n(CC)n3)cc(C#N)c21` (stereo not drawn) [Example 140], the IC50 in test [1] and in test [2] was < 500 nM throughout.

On to `CCCC1(CC(=O)O)OCCc2c1[nH]c1c(C)c(OC[C@@H](C)OC)cc(C#N)c21` (stereo partly drawn) [Example 141], for which the IC50 in test [1] and in test [2] was < 500 nM in each case.

For the compound `CCCC1(CC(=O)O)OCCc2c1[nH]c1c(C)c(OCCCSC)cc(C#N)c21` (stereo not drawn) [Example 142], the IC50 in test [1] and in test [2] was < 500 nM in each case.

With `CCCC1(CC(=O)O)OCCc2c1[nH]c1c(C)c(OCCCS(C)(=O)=O)cc(C#N)c21` (stereo not drawn) [Example 143], the IC50 in test [1] (setting [3]) and in test [2] was < 500 nM each time.

As for “(7-Benzyloxymethyl-5-cyano-8-methyl-1-propyl-1,3,4,9-tetrahydro-pyrano[3,4-b]indol-1-yl)-acetic acid [Example 15]”, the IC50 in test [1] (setting [3]) and in test [2] was < 500 nM each time.

In the case of “[5-Cyano-8-methyl-1-propyl-7-(tetrahydro-pyran-4-ylmethoxymethyl)-1,3,4,9-tetrahydro-pyrano[3,4-b]indol-1-yl]-acetic acid [Example 12]”, the IC50 in test [1] (setting [3]) and in test [2] was 500 to 5000 nM throughout.
